Experimental data published in ChEMBL document CHEMBL3507680, “University of Dundee, Gates Library screen for HepG2 cell viability”.

experiment: Human HepG2 cell viability assay in 384 well format; format: toxicity, cell-based; design: dose 125 nL, time 70.5 hour; concentration not given beside the values; conditions: HepG2 cells, read-out: Inhibition

| SMILES | cytotoxicity at 70.5 h [%] |
| --- | --- |
| COc1ccc(CN2C[C@@H]3CN(C(=O)[C@H]4CCCO4)C[C@@H]3C2=O)cc1 | -4.12 |
| CN(C)CC(=O)N1CCC2(CCN(Cc3cccc(F)c3)CC2)C1 | -8.05 |
| O=C(NCCc1ccccn1)[C@@]12CCO[C@@H]1CCN(c1ncccn1)C2 | -2.15 |
| COc1ccc(C[C@H]2CN(C(=O)C3CC3)CC[C@H]2OC)cc1 | 21.5 |
| CCN1C(=O)CCC12CCCN(CCc1ccccc1)C2 (configuration not stated) | 34.9 |
| CN(C)CC(=O)N1CCC2(CC1)CN(Cc1ccccc1)C2 | 30.2 |
| CS(=O)(=O)N1CCN(c2ccc3ccc(C(=O)NC4CC4)cn23)CC1 | 0.444 |
| COCCN1CCN(c2ccc3ccc(C(=O)NC4CC4)cn23)CC1 | -2.48 |
| O=C(c1ccco1)N1CCC2(CCC(=O)N2Cc2ccncc2)CC1 | -2.64 |
| COc1ccc(CC(=O)N2CCC3(CC2)CCN(CC(C)C)C3=O)cc1 | -10.5 |
| CC(=O)N1[C@H](CN(C)C)C[C@@H]2CN(C(=O)c3ccsc3)CC[C@@H]21 | -12.2 |
| CCN1C(=O)CCC12CCN(C(=O)c1ccco1)CC2 | -11.8 |
| CC(=O)NCC(=O)N1CCC2(CC1)C(=O)N(CC1CC1)c1ccccc12 | -11.7 |
| O=C(NC1CC1)[C@H]1C[C@H]2OCC[C@H]2N(Cc2ccco2)C1 | -8.44 |
| CCOCC1CN(Cc2cc(C)on2)Cc2cn(C)nc21 (configuration not stated) | 4.78 |
| O=C1NC(c2ccccc2)=N[C@@]12CC[C@@H]1CN(S(=O)(=O)C3CC3)C[C@@H]12 | 2.16 |
| CN(C)CCOCC1CN(C(=O)c2ccccn2)Cc2ccnn2C1 (configuration not stated) | 6.38 |
| O=C(c1ccc(Cl)cc1)N1CCc2nc(C(=O)N3CCCC3)sc2CC1 | 7.75 |
| COCCN1CCn2cc(CNC(=O)C3CCC3)nc2C1 | 1.63 |
| CNC(=O)c1nc2c(s1)CCN(C(=O)c1ccc(OC)cc1)CC2 | -7.87 |
| CN(C)CCOCC1CN(C(=O)c2cccnc2)Cc2ccnn2C1 (configuration not stated) | -6.34 |
| Cc1cccc(N2CC3(CCN(S(=O)(=O)c4ccccc4)C3)CC2=O)c1 (configuration not stated) | -6.5 |
| Cc1cnc(C(=O)N2CCC3(CC2)CC(c2ccncc2)C(=O)N3)cn1 (configuration not stated) | -5.53 |
| CC(=O)N1CC(=O)N(c2ccccc2)CC12CCN(Cc1ccsc1)C2 (configuration not stated) | -8.03 |
| CS(=O)(=O)N[C@@H]1CN(Cc2ccoc2)C[C@@H]2CCCO[C@@H]21 | -8.39 |
| Cc1cccc(C(=O)N2CCC3(CC2)CC(c2ccccc2)C(=O)N3)c1 (configuration not stated) | -0.963 |

| SMILES | cytotoxicity at 70.5 h [%] |
| --- | --- |
| CS(=O)(=O)NC[C@@H]1OC[C@H]2CN(C(=O)c3cnccn3)CC[C@H]21 | -1.54 |
| Cn1cnc(S(=O)(=O)N2CCCn3cnc(CN4CCCC4)c3C2)c1 | -3.74 |
| COCC1CC2(CCNCC2)CN1c1ncccn1 (configuration not stated) | 2.77 |
| Cc1cncc(C(=O)NCC2COCc3c(C)nnn3C2)c1 (configuration not stated) | 0.75 |
| O=C(C1CCOCC1)N1CCC2(CC1)CC(Oc1ccccc1)CO2 (configuration not stated) | 3.04 |
| CN(C)C(=O)N1Cc2nnn(C)c2C(COCC2CC2)C1 (configuration not stated) | -6.79 |
| Cn1cc(CN2CC3(CCN(C(=O)c4cscn4)C3)C2)cn1 | -7.98 |
| CCNC(=O)c1ncn2c1CN(C)S(=O)(=O)c1ccccc1-2 | -8.36 |
| Cc1ccc2c(c1)C1(CC2)CCN(c2nncs2)CC1 | -4.57 |
| Fc1cnc(N2CCC3(COCc4cnc(NCC5CC5)nc43)C2)nc1 (configuration not stated) | -6.29 |
| O=C(N1CCCC1)N1CCc2c(CNc3ncccn3)cncc2C1 | -1.33 |
| COCCC(=O)N1CCc2c(CNc3ncccn3)cncc2C1 | -1.53 |
| CN1C(=O)CC[C@]12CC[C@@H](NCc1ccsc1)CC2 | -5.76 |
| CN(C)CCN1C(=O)CCC12CCCN(C(=O)C1CC=CC1)CC2 (configuration not stated) | -1.28 |
| COC1COC2(CCN(Cc3ccc4c(c3)OCO4)CC2)C1 (configuration not stated) | 0.98 |
| Cc1cccc(CN2C[C@@H]3CN(C(=O)NC(C)C)C[C@@H]3C2=O)n1 | -12 |
| Cc1cccc(CN2C[C@@H]3CN(C(=O)c4ccco4)C[C@@H]3C2=O)n1 | -13.1 |
| O=C1CCCN1Cc1nnc2n1CCN(Cc1ccccn1)CC2 | -7.47 |
| Cc1cccc(CN2C[C@@H]3CN(C(=O)c4cnoc4C)C[C@@H]3C2=O)n1 | -5.42 |
| Cc1ccc(CN2CCc3nnc(CN4CCCC4=O)n3CC2)s1 | -7.74 |
| CC(C)Oc1ncnc2c1CCN(Cc1ccc(F)cc1)CC2 | -5.44 |
| CC(C)NC(=O)[C@H]1C[C@@H]2[C@@H](C1)OCCN2Cc1cccs1 | -2.88 |
| CNC(=O)[C@H]1C[C@H]2OCC[C@H]2N(CC2CC2)C1 | -3.14 |
| O=C(NC1CC1)[C@H]1C[C@H]2OCC[C@H]2N(Cc2ccc(F)cc2)C1 | -6.46 |
| CCOc1ncnc2c1CCN(Cc1cccs1)CC2 | -8.1 |
| O=C([C@H]1C[C@H]2OCC[C@H]2N(Cc2ccco2)C1)N1CCCO1 | -14.8 |

| SMILES | cytotoxicity at 70.5 h [%] |
| --- | --- |
| O=C(C1=CCCC1)N1CC[C@]2(C[C@H](OCc3cccnc3)CO2)C1 | -12.5 |
| COc1ccc(C[C@H]2CN(c3cc(OC)ncn3)CC[C@H]2OC)cc1 | 11.6 |
| Cn1cccc1C(=O)N[C@@H]1CN(Cc2cccs2)[C@@H]2COC[C@@H]21 | -3.46 |
| Cc1oncc1C(=O)N[C@@H]1CN(c2ncccn2)C[C@@H]2CCCO[C@@H]21 | -10.7 |
| CS(=O)(=O)N[C@@H]1CN(Cc2ccco2)C[C@@H]2CCCO[C@@H]21 | -6.79 |
| COCC1CC2(CCN(S(=O)(=O)C3CC3)CC2)CN1c1ncccn1 (configuration not stated) | 14.2 |
| Cn1cc(CN2C[C@@H]3CCCO[C@@H]3[C@H](NC(=O)CC3CC3)C2)cn1 | 11.8 |
| CC(C)N1CCOCC2(CCCN(C(=O)c3cn(C)cn3)C2)C1 (configuration not stated) | 0.0869 |
| O=C(NCc1ccco1)[C@@]12CCO[C@@H]1CCN(c1ncccn1)C2 | -2.22 |
| O=C(NCc1ccco1)[C@@]12CCO[C@@H]1CCN(CC1CCOCC1)C2 | -1.64 |
| Cc1ccc(CNC(=O)c2nc3c(o2)CN(C(=O)c2cccnc2)C3)o1 | -1.67 |
| O=C(NC1CCC1)[C@@H]1CCO[C@@H]2CCN(C3CCCC3)C[C@H]21 | -3.8 |
| O=C(NCc1ccco1)[C@@]12CCO[C@@H]1CCN(C1CCC1)C2 | 2.1 |
| COc1ccc(CC(=O)N2CCN(C)c3ncccc3C2)cc1 | 11.6 |
| Fc1ccccc1CN1C[C@H](OCC2CCOCC2)[C@H]2OCCC[C@H]21 | 17.2 |
| O=C(COC[C@H]1CC[C@H]2[C@H](CCN2c2ncccn2)O1)N1CCCC1 | -3.63 |
| CN(C)c1ncc2c(n1)C1(CCN(Cc3ccccc3)C1)COC2 (configuration not stated) | -5.25 |
| Cn1cc(N2CC3(CCN(Cc4cccs4)CC3)OCC2=O)cn1 | -4.87 |
| Cc1ccccc1CN1CCC2(COCc3cnc(N(C)C)nc32)C1 (configuration not stated) | 0.683 |
| O=C1NC2(CCN(C(=O)c3ccccc3)CC2)CC1c1cccnc1 (configuration not stated) | 2.71 |
| Cc1ccc(CN2Cc3c(C(=O)N(C)C)nn(C)c3C2)s1 | -3.13 |
| CCn1ncc2c1C(COCC1CC1)CN(S(=O)(=O)N(C)C)C2 (configuration not stated) | -7.75 |
| Cc1nc(CN2C(=O)COC3(CCN(Cc4nccs4)CC3)C2C)cs1 (configuration not stated) | -6.92 |
| O=C(Cc1cccs1)N1C[C@@H]2OCCN(CC3CCCO3)[C@@H]2C1 (some centres not stated) | -1.51 |
| Cc1cccc(CN2CCc3ncnc(N4CCOCC4)c3CC2)n1 | -1.5 |
| Cn1ccc(C(=O)NC2CCC23CCN(C(=O)c2ccncc2)CC3)c1 (configuration not stated) | -6.03 |

| SMILES | cytotoxicity at 70.5 h [%] |
| --- | --- |
| Cc1cccc(-c2ccc3nc(C4CCN(CC5CC5)CC4)nn3c2)c1 | 0.0128 |
| Cc1nc(CN2C[C@@H]3CN(C(=O)c4cnccn4)C[C@@H]3C2)cs1 | -11.6 |
| Cc1nc(CN2C(=O)C[C@H]3[C@H]2CCN3C2CCOCC2)cs1 | -2.79 |
| CCCN1CCC[C@]2(CCC(=O)N2Cc2ccncc2)[C@H]1CC | -4.44 |
| O=C([C@H]1CN(Cc2cccnc2)C[C@H]2OCC[C@@H]12)N1CCCO1 | -6.93 |
| O=C([C@H]1CN(Cc2ccncc2)C[C@H]2OCC[C@@H]12)N1CCCCO1 | -14.4 |
| CN(C)CCO[C@H]1CN(Cc2ccoc2)[C@@H]2COC[C@H]12 | 6.76 |
| O=C(N[C@@H]1CN(c2ncccn2)C[C@@H]2CCCO[C@@H]21)c1cccnc1 | 7.96 |
| CN(C)CCOCC1CN(C(=O)c2cccn2C)Cc2ccnn2C1 (configuration not stated) | 8.36 |
| CN(C)CCO[C@H]1CN(Cc2ccc3c(c2)OCO3)[C@@H]2COC[C@H]12 | -4.2 |
| CN(C)CCOCC1CN(C(=O)c2ccnnc2)Cc2ccnn2C1 (configuration not stated) | -14 |
| CN(C)CCOCC1CN(C(=O)c2ccsc2)Cc2ccnn2C1 (configuration not stated) | -5.3 |
| CC(=O)N1CC(=O)N(c2cccnc2)CC12CCN(Cc1nccs1)C2 (configuration not stated) | -0.821 |
| Cn1ccnc1CN1CCN2C[C@H](Oc3cncnc3)C[C@H]2C1 | 0.558 |
| O=C(NCc1ccco1)[C@@]12CCO[C@@H]1CCN(Cc1ccccn1)C2 | -3.48 |
| O=C(NCCN1CCCC1)c1nc2c(o1)CN(C(=O)c1cccnc1)C2 | -1.83 |
| CN1CCCN(C(=O)c2nc3c(o2)CN(C(=O)c2cccnc2)C3)CC1 | -1.59 |
| Cc1cc(C(=O)N2CCCC3(COCCN(CCN(C)C)C3)C2)no1 (configuration not stated) | 1.65 |
| COc1ccc(CN2CCC3(CC2)CN(c2ccccn2)CCO3)cc1 | 2.33 |
| O=C1[C@H]2CN(Cc3ccncc3)C[C@H]2CN1c1cncnc1 | -0.121 |
| CN1CC(=O)N(c2cnn(C)c2)CC12CCN(Cc1nccn1C)C2 (configuration not stated) | -4.58 |
| O=C1C[C@@H]2[C@H](CCN2Cc2ccccn2)N1Cc1ccncc1 | -4.28 |
| c1cncc(C[C@H]2[C@H](N3CCOCC3)CCN2Cc2nccs2)c1 | -3.76 |
| COCC1CC2(CCN(Cc3ccccn3)CC2)CN1c1ncccn1 (configuration not stated) | 0.787 |
